Reference: article PMC11555401 (2024)

Tests used:
[1] = system: aptamer-Seq.10-Cy5 (csa-DEHP aptamer) (DNA, aptamer) TTCCGGGCATACGTATCGAATGTTGTGAGCCGTGGGCTGC; assay: 1H NMR; conditions: complex formed in deionized water at 4 °C overnight, dialyzed; amino signals shift 1.9 to 2.3 ppm
[2] = system: DEHP aptamer-Seq.10 (FAM-labeled) (DNA, aptamer) TTCCGGGCATACGTATCGAATGTTGTGAGCCGTGGGCTGC; assay: graphene oxide fluorescence assay; conditions: 37 °C, 1.5 h incubation; graphene oxide:ssDNA mass ratio 100:1; nonlinear regression

binding [1]: yes
Kd [2]: 70 nM
SMILES: CCCCC(CC)COC(=O)c1ccccc1C(=O)OCC(CC)CCCC (centres unmarked)
